Data reported in patent US9029378B2, “Substituted bicyclic aromatic carboxamide and urea compounds as vanilloid receptor ligands” (Gruenenthal GmbH, priority 2011, dated 2015).

These compounds were tested against T1, vanilloid receptor 1 (VR1/TRPV1 receptor) (Homo sapiens, UniProt Q8NER1) (assay: Functional testing on the vanilloid receptor 1 (FLIPR Ca2+ influx assay, capsaicin)). Details: @1 μM; Cap=capsaicin; read-out: inhibition (as a percentage), (f) (human being) Cap.
T1 construct: expressed in transfected cells; host or cells: CHO K1
T1 sequence (Q8NER1 whole entry): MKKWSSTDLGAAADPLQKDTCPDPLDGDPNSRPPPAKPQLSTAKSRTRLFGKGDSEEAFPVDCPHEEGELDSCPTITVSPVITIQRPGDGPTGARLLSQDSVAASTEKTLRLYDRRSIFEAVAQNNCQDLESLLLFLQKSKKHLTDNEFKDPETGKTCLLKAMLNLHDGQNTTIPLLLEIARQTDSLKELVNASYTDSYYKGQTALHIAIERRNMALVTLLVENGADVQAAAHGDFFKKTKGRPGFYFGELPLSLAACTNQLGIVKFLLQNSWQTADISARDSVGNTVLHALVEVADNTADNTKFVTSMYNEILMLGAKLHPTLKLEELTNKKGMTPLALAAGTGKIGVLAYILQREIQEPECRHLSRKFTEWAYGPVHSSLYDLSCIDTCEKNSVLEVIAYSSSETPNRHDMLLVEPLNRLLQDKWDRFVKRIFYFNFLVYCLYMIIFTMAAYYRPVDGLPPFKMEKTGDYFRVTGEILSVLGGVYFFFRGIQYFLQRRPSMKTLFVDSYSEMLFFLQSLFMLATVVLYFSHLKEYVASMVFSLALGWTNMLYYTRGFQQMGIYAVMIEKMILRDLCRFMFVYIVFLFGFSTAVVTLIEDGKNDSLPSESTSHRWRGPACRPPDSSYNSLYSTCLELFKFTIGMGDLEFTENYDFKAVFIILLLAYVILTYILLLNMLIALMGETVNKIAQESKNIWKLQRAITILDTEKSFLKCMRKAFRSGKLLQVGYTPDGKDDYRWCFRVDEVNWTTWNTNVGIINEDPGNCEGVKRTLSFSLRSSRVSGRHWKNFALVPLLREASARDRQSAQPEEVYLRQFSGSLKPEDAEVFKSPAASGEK
Assay type: cell-based, human being
Design: key to (f) (human being) Cap: effect in words (agonist / no effect): AG=agonist; NE=no effect
Procedure: Furthermore, preference may be given to compounds according to the invention that cause a 50 percent displacement of capsaicin, which is present at a concentration of 100 nM, in a FLIPR assay with CHO K1 cells which were transfected with the human VR1 gene at a concentration of less than 2,000 nM, preferably less than 1,000 nM, particularly preferably less than 300 nM, most particularly preferably less than 100 nM, even more preferably less than 75 nM, additionally preferably less than 50 nM, most preferably less than 10 nM.
In the process, the Ca^2+ influx is quantified in the FLIPR assay with the aid of a Ca^2+-sensitive dye (type Fluo-4, Molecular Probes Europe BV, Leiden, the Netherlands) in a fluorescent imaging plate reader (FLIPR, Molecular Devices, Sunnyvale, USA), as described hereinafter.
Pharmacological Methods I. Functional Testing Carried Out on the Vanilloid Receptor 1 (VR1/TRPV1 Receptor) […]
The number of cells in the suspension is set to 3×10^5 per mL and 150 μL of this suspension are in each case introduced into a recess in the cell culture plates coated as described hereinbefore. In the incubator the plates are left for two to three days at 37° C., 5% by volume of CO2 and 95% relative humidity. Subsequently, the cells are loaded with 2 μM of Fluo-4 and 0.01% by volume of Pluronic F127 (Molecular Probes Europe BV, Leiden, the Netherlands) in HBSS buffer (Hank's buffered saline solution, Gibco Invitrogen GmbH, Karlsruhe, Germany) for 30 min at 37° C., washed 3 times with HBSS buffer and after further incubation for 15 minutes at room temperature used for Ca^2+ measurement in a FLIPR assay. The Ca^2+-dependent fluorescence is in this case measured before and after the addition of substances (λex=488 nm, λem=540 nm). Quantification is carried out by measuring the highest fluorescence intensity (FC, fluorescence counts) over time.
The FLIPR protocol consists of 2 substance additions. First the compounds to be tested (10 μM) are pipetted onto the cells and the Ca^2+ influx is compared with the control (capsaicin 10 μM). This provides the result in % activation based on the Ca^2+ signal after the addition of 10 μM of capsaicin (CP). After 5 minutes' incubation, 100 nM of capsaicin are applied and the Ca^2+ influx is also determined.
Desensitising agonists and antagonists lead to suppression of the Ca^2+ influx. The % inhibition is calculated compared to the maximum achievable inhibition with 10 μM of capsazepine. Triple analyses (n=3) are carried out and repeated in at least 3 independent experiments (N=4). Starting from the percentage displacement caused by different concentrations of the compounds to be tested of general formula I, IC50 inhibitory concentrations which cause a 50-percent displacement of capsaicin were calculated. Ki values for the test substances were obtained by conversion by means of the Cheng-Prusoff equation (Cheng, Prusoff; Biochem. Pharmacol. 22, 3099-3108, 1973).
The affinity of the compounds of to the invention for the vanilloid receptor 1 (VR1/TRPV1 receptor) was determined as described hereinbefore (pharmacological method I). The compounds of the invention display outstanding affinity to the VR1/TRPV1 receptor (Table 2). In Table 2 the abbreviations below have the following meanings: • Cap=capsaicin • AG=agonist • NE=no effect
The value after the “@” symbol indicates the concentration at which the inhibition (as a percentage) was respectively determined.

In the case of `CC1CCN(c2nc(C(F)(F)F)ccc2CNC(=O)Nc2ccc3ncccc3c2)CC1` [Example 69, 1-((2-(4-Methylpiperidin-1-yl)-6-(trifluoromethyl)pyridin-3-yl)methyl)-3-(quinolin-6-yl)urea], the inhibition at 1 µM is reported as 40%.

Same assay, conditions: @5 μM; Cap=capsaicin; read-out: inhibition (as a percentage), (f) (human being) Cap

With `O=C(NCc1ccc(C(F)(F)F)nc1SC1CCCCC1)Nc1ccc2ccccc2n1` [Example 11, 1-((2-(Cyclohexylthio)-6-(trifluoromethyl)pyridin-3-yl)methyl)-3-(quinolin-2-yl)urea] the inhibition at 5 µM was 19%.

Same assay, conditions: Cap=capsaicin

For `CC1CCN(c2nc(C(F)(F)F)ccc2CNC(=O)Nc2nccc3ccccc23)CC1` [Example 20, 1-(Isoquinolin-1-yl)-3-((2-(4-methylpiperidin-1-yl)-6-(trifluoromethyl)pyridin-3-yl)methyl)urea], the “(f) (human being) Cap: effect in words (agonist / no effect)” value was “NE”.

Same assay, conditions: Cap=capsaicin (100 nM); Ki from IC50 by Cheng-Prusoff equation; read-out: (f) Ki (human being) [nM] Cap

Going from `CN(C)C1(c2ccccc2)CCN(c2nc(C(F)(F)F)ccc2CNC(=O)Nc2cccc3[nH]ncc23)CC1` [Example 45, 1-((2-(4-(dimethylamino)-4-phenylpiperidin-1-yl)-6-(trifluoromethyl)pyridin-3-yl)methyl)-3-(1H-indazol-4-yl)urea] to `CC1CCN(c2nc(C(F)(F)F)ccc2CNC(=O)Nc2cccc3[nH]ncc23)CC1` [Example 44, 1-(1H-indazol-4-yl)-3-((2-(4-methylpiperidin-1-yl)-6-(trifluoromethyl)pyridin-3-yl)methyl)urea], the Ki falls from 7 nM to 0.4 nM (18-fold).

Compared with `CN(C)C1(c2ccccc2)CCN(c2nc(C(F)(F)F)ccc2CNC(=O)Nc2cccc3cnccc23)CC1` [Example 77, 1-((2-(4-(Dimethylamino)-4-phenylpiperidin-1-yl)-6-(trifluoromethyl)pyridin-3-yl)methyl)-3-(isoquinolin-5-yl)urea], `CC1CCN(c2nc(C(F)(F)F)ccc2CNC(=O)Nc2ccc3nc(N)sc3c2)CC1` [Example 34, 1-(2-Aminobenzo[d]thiazol-6-yl)-3-((2-(4-methylpiperidin-1-yl)-6-(trifluoromethyl)pyridin-3-yl)methyl)urea] is 12-fold higher in Ki: 4 nM for the first, 50 nM for the second.

First: CC1CCN(c2nc(C(F)(F)F)ccc2CNC(=O)Nc2cccc3c(Cl)nccc23)CC1 [Example 79, 1-(1-Chloroisoquinolin-5-yl)-3-((2-(4-methylpiperidin-1-yl)-6-(trifluoromethyl)pyridin-3-yl)methyl)urea]
Second: Cc1[nH]c2c(NC(=O)NCc3ccc(C(F)(F)F)nc3N3CCC(C)CC3)cccc2c1C [Example 37, 1-(2,3-Dimethyl-1H-indol-7-yl)-3-((2-(4-methylpiperidin-1-yl)-6-(trifluoromethyl)pyridin-3-yl)methyl)urea]
The Ki of the first is 5-fold lower: 0.8 nM for the first, 4 nM for the second. The first binds more tightly here.

Going from `CC1CCN(c2nc(C(F)(F)F)ccc2CNC(=O)Nc2cccc3scnc23)CC1` [Example 59, 1-(Benzo[d]thiazol-4-yl)-3-((2-(4-methylpiperidin-1-yl)-6-(trifluoromethyl)pyridin-3-yl)methyl)urea] to `CN(C)C1(c2ccccc2)CCN(c2nc(C(F)(F)F)ccc2CNC(=O)Nc2cccc3[nH]ccc23)CC1` [Example 39, 1-((2-(4-(Dimethylamino)-4-phenylpiperidin-1-yl)-6-(trifluoromethyl)pyridin-3-yl)methyl)-3-(1H-indol-4-yl)urea], the Ki falls from 18 nM to 8 nM (2.2-fold). The second binds more tightly here.

Compared with `Cc1cc2cccc(NC(=O)NCc3ccc(C(F)(F)F)nc3N3CCC(C)CC3)c2cn1` [Example 87, 1-(3-Methylisoquinolin-8-yl)-3-((2-(4-methylpiperidin-1-yl)-6-(trifluoromethyl)pyridin-3-yl)methyl)urea], `CC1CCN(c2nc(C(F)(F)F)ccc2CNC(=O)Nc2c(Cl)ccc3[nH]ncc23)CC1` [Example 57, 1-(5-Chloro-1H-indazol-4-yl)-3-((2-(4-methylpiperidin-1-yl)-6-(trifluoromethyl)pyridin-3-yl)methyl)urea] is 5-fold lower in Ki: 15 nM for the first, 3 nM for the second.

First: Cc1ccc2cc(NC(=O)NCc3ccc(C(F)(F)F)nc3N3CCC(C)CC3)ccc2n1 [Example 70, 1-((2-(4-Methylpiperidin-1-yl)-6-(trifluoromethyl)pyridin-3-yl)methyl)-3-(2-methylquinolin-6-yl)urea]
Second: O=C(NCc1ccc(C(F)(F)F)nc1SC1CCCCC1)Nc1cccc2ccncc12 [Example 85, 1-((2-(Cyclohexylthio)-6-(trifluoromethyl)pyridin-3-yl)methyl)-3-(isoquinolin-8-yl)urea]
The Ki of the first is 68-fold higher: 68 nM for the first, 1 nM for the second.

First: CC1CCN(c2cc(C(F)(F)F)ccc2CNC(=O)Nc2cccc3ncccc23)CC1 [Example 63, 1-(2-(4-Methylpiperidin-1-yl)-4-(trifluoromethyl)benzyl)-3-(quinolin-5-yl)urea]
Second: CC(C)Oc1nc(C(F)(F)F)ccc1CNC(=O)Nc1cccc2ncccc12 [Example 65, 1-((2-Isopropoxy-6-(trifluoromethyl)pyridin-3-yl)methyl)-3-(quinolin-5-yl)urea]
The Ki of the first is 5.7-fold lower: 0.7 nM for the first, 4 nM for the second.

First: N-(2-(4-Methylpiperidin-1-yl)-4-(trifluoromethyl)benzyl)-2-(quinolin-3-yl)propanamide [Example 16]
Second: Cc1ccc2cccc(NC(=O)NCc3ccc(C(F)(F)F)nc3N3CCC(C)CC3)c2n1 [Example 73, 1-((2-(4-Methylpiperidin-1-yl)-6-(trifluoromethyl)pyridin-3-yl)methyl)-3-(2-methylquinolin-8-yl)urea]
The Ki of the first is 2.4-fold lower: 10 nM for the first, 24 nM for the second.

Compared with `CC(C)(C)COc1nc(C(F)(F)F)ccc1CNC(=O)Nc1cccc2ncccc12` [Example 66, 1-((2-(Neopentyloxy)-6-(trifluoromethyl)pyridin-3-yl)methyl)-3-(quinolin-5-yl)urea], `CC1CCN(c2nc(C(F)(F)F)ccc2CNC(=O)Nc2ccc3[nH]ccc3c2)CC1` [Example 23, 1-(1H-Indol-5-yl)-3-((2-(4-methylpiperidin-1-yl)-6-(trifluoromethyl)pyridin-3-yl)methyl)urea] is 6.5-fold higher in Ki: 2 nM for the first, 13 nM for the second.

Going from `CC1CCN(c2cc(C(C)(C)C)ccc2CNC(=O)Nc2cccc3ncccc23)CC1` [Example 62, 1-(4-Tert-butyl-2-(4-methylpiperidin-1-yl)benzyl)-3-(quinolin-5-yl)urea] to `O=C(NCc1ccc(C(F)(F)F)nc1OC1CCC1)Nc1cccc2ncccc12` [Example 68, 1-((2-Cyclobutoxy-6-(trifluoromethyl)pyridin-3-yl)methyl)-3-(quinolin-5-yl)urea], the Ki rises from 1 nM to 2 nM (2-fold). The first binds more tightly here.

Compared with `CC1CCN(c2nc(C(F)(F)F)ccc2CNC(=O)Nc2cccc3c2cnn3C)CC1` [Example 46, 1-(1-Methyl-1H-indazol-4-yl)-3-((2-(4-methylpiperidin-1-yl)-6-(trifluoromethyl)pyridin-3-yl)methyl)urea], `Cc1nccc2cccc(NC(=O)NCc3ccc(C(F)(F)F)nc3N3CCC(C)CC3)c12` [Example 86, 1-(1-Methylisoquinolin-8-yl)-3-((2-(4-methylpiperidin-1-yl)-6-(trifluoromethyl)pyridin-3-yl)methyl)urea] is 100-fold higher in Ki: 0.5 nM for the first, 52 nM for the second.

`CC1CCN(c2nc(C(F)(F)F)ccc2CNC(=O)Nc2ccc3cnccc3c2)CC1` [Example 83, 1-(Isoquinolin-6-yl)-3-((2-(4-methylpiperidin-1-yl)-6-(trifluoromethyl)pyridin-3-yl)methyl)urea] and `O=C(NCc1ccc(C(F)(F)F)cc1C1CCCC1)Nc1cc(F)cc2[nH]ncc12` [Example 54, 1-(2-Cyclopentyl-4-(trifluoromethyl)benzyl)-3-(6-fluoro-1H-indazol-4-yl)urea] are the same in Ki: 7 nM for the first, 7 nM for the second.
